# Calls of active or inactive are those of the source. The rule behind the calls is not given here.
# How the values were obtained:
# [1] = Inhibition of proteinase K at 1 mM by RT-PCR
# [2] = Inhibition of proteinase K at […] by RT-PCR
# [3] = Inhibition of proteinase K at 0.125 mM by independent digestion assay in presence of BSA
# [4] = Inhibition of proteinase K at 0.05 mM by RT-PCR
# [5] = Inhibition of proteinase K at 0.25 mM by independent digestion assay in presence of BSA
Activity [1],Activity [2],Activity [3],Activity [4],Activity [5],SMILES
Active,Active,Active,,,COC(=O)CCC(=O)N[C@H](C)C(=O)N[C@@H](C)C(=O)N1CCC[C@H]1C(=O)N[C@H](C(=O)CCl)C(C)C
,,,Active,Active,COC(=O)CCC(=O)N[C@H](C)C(=O)N[C@@H](C)C(=O)N1CCC[C@H]1C(=O)N[C@@H](Cc1ccccc1)C(=O)CCl

# Reference: ChEMBL document CHEMBL1153283, “Synthesis and application of MeOSuc-Ala-Ala-Pro-Phe-CH2Cl as potent proteinase K inhibitor” (Bioorg Med Chem Lett, 2009)
